This is an account of results in US9770448B1, “Compositions and methods for treatment of Bowen's disease and related diseases” (priority 2016, dated 2017).

Experiment [1] deals with HPV+ laryngeal keratinocytes. As to the kind of experiment: In vitro chloroquine-induced killing of laryngeal keratinocytes (HPV+). The format is cell-based, human. Conditions: two days incubation, visual inspection for survival. The source says: (§1) In addition to the foregoing examples, in vitro experimental data have been obtained which indicate that the compositions and methods of the present disclosure can be used in the treatment of recurrent respiratory papillomatosis (RRPRRP) disease, which is also known as laryngeal papillomatosis. RRP is caused by human papillomavirus (HPV), typically HPV6 and HPV11, and involves formation of generally nonmalignant tumors on the larynx or vocal chords, and can spread to the trachea, bronchi and lungs. HPV^+ and HPV^− laryngeal keratinocytes obtained from a recurrent respiratory papillomatosis patient were expanded on Mitomycin C-treated J2 3T3 feeder cell layers in E media with 10 uM Y27632 (ROCK inhibitor). These cells were then plated without feeder layers in 2.5 uM Y27632 and grown until they reached 90% confluency. At this point, fresh E media without Y27632 was added to the cells with increasing concentrations of chloroquine. Chloroquine concentrations used were 0 ug/ml, 2.5 ug/ml, 25 ug/ml, 250 ug/ml, 2.5 mg/ml and 25 mg/ml. Chloroquine powder (Sigma) was resuspended at 25 mg/ml in E media and was brought to pH 7 with 1N NaOH. Working dilutions were made with full E media. Cells were incubated for two days in chloroquine and then visually inspected for survival, as noted by (a) the presence of cells in the wells and (b) morphology of the cells.

Experiment [2] deals with HPV- laryngeal keratinocytes. The experiment is described as follows: In vitro chloroquine-induced killing of laryngeal keratinocytes (HPV-). Conditions: two days incubation, visual inspection for survival. Type of experiment: cell-based, human.
Text: as §1

For another experiment, the system named is Bowen's disease. The conditions noted are these: Example 10 patient history; cited from earlier work.

Molecules are shown by their SMILES.

As for `CCN(CC)CCCC(C)Nc1ccnc2cc(Cl)ccc12` (racemic) [chloroquine, (RS)—N′-(7-chloroquinolin-4-yl)-N,N-diethyl-pentane-1,4-diamine], in experiment [1], the “Chloroquine concentration that cells survived” value is 25 µg/mL and the “Chloroquine concentrations at which cells were killed” value is at least 250 µg/mL. In experiment [2], the “Chloroquine concentration that cells survived” value was 25 µg/mL and the “Chloroquine concentrations at which cells were killed” value is at least 250 µg/mL.
As for `O=C(O)C(Cl)(Cl)Cl` [TCA, trichloroacetic acid], the “Outcome of earlier over the counter drug as stated by patient” value in the experiment with Bowen's disease is “made the Bowen's disease Lesion worse”.
